From ChEMBL document CHEMBL1949518, “Synthesis and biological evaluation of some new 2-pyrazolines bearing benzene sulfonamide moiety as potential anti-inflammatory and anti-cancer agents” (Eur J Med Chem, 2011) come the findings set out here.

In the assay the test system is UO-31. Briefly: Antiproliferative activity against human UO31 cells assessed as cell growth at 10^-5 M after 48 hrs by SRB assay relative to control. The assay is classed as functional. The note with it: UO-31, 48 h, read-out: Activity.

For `COc1ccc(C2CC(c3c(O)cc(C)c(Cl)c3C)=NN2c2ccc(S(N)(=O)=O)cc2)cc1` (stereo unspecified), the growth at 10 µM was found to be 93.3%.
